Patent US8772268B2, “Bisphosphonamidate prodrugs and uses thereof” (The Johns Hopkins University, priority 2010, dated 2014)
“And” between values parts separate entries of the source, which are not always exact repeats. Identical values can stand only once. Like-named read-outs stand apart in the source and are kept apart here.

Columns and labels:
A549 NSCLC cells = assay: MTS cell proliferation assay, A549; format: cell-based; settings: for IC50: A549, MTS, read-out: IC50 (decreased cell proliferation by 50% compared to control)
Procedure: Cell proliferation was determined using the CellTiter 96 Aqueous One Solution Cell Proliferation Assay MTS assay. A549 NSCLC cells were plated at 1.5×10^3 cells per well in flat bottom 96 well plates in 99 μL of media and allowed to adhere overnight. The drugs were serially diluted in 100% DMSO. For each drug treatment group, 1 μL of a 100× stock solution was added to each well for a final DMSO concentration of 1%. Cells were treated for 24, 48 or 72 hours. Cells were incubated with MTS dye (20 μL well^−1) for 40 min to 2 h. Absorbance at 490 nm was determined using a SpectraMax M2 (Molecular Devices) plate reader. The percent cell proliferation was calculated by converting the experimental absorbance to percentage of control, which was then plotted vs. drug concentration. The IC50 values were determined using a non-linear dose-response analysis in GraphPad Prism version 4.0. The IC50 is defined as the concentration of drug needed to cause a 50% decrease in proliferation compared to vehicle control. […]

[1] = In vivo tolerance study, I.V. dosing (tail vein); set-up: species or system Balb/c mice
Procedure: Ten Balb/c mice were split into three groups: untreated, vehicle and clodronate prodrug. Untreated mice received no treatment or injection. The vehicle was 100 μL 10% cremaphor in ddH20 injected into the tale vein. 100 μL of 3 mM Clodronate Prodrug dissolved in 10% cremaphor in ddH20. (100 μL of 3 mM is about 14 mg/kg).

[2] = In vivo tolerance study, intraperitoneal dosing; set-up: species or system Balb/C mice; settings: listed as clodronate prodrug
Procedure: Thirteen Balb/C mice were split into four groups; untreated, vehicle, dose 1 and dose 2. Untreated mice received no treatment or injection. The vehicle was 100 μL of corn oil. Mice receiving dose 1 received 100 μL of 30 mM clodronate prodrug dissolved in corn oil (2.17 mg/dose), which is about 110 mg/kg dose. Mice receiving dose 2 received 100 μL of 50 mM clodronate prodrug dissolved in corn oil (3.61 mg/dose), which is about a 200 mg/kg dose. Mice were dosed on Monday of each week for two weeks. The weights were measured for 4 consecutive days following dosing.

HUVEC = assay: Sprouting assay on dextran beads (anti-angiogenic activity); format: cell-based
Procedure: This assay is an unpublished variation of the assay described (Microvascular Research 2003, 66, 102-112) performed by the Hans Hammers Lab at Johns Hopkins University. The assay described in the above reference is described below.
HUVEC were mixed with dextran-coated Cytodex 3 microcarriers (Amersham Pharmacia Biotech, Piscataway, N.J.) at a concentration of 400 HUVEC per bead in 1 ml of EGM-2 medium (Clonetics, Walkersville, Md.). Beads with cells were shaken gently every 20 min for 4 h at 37° C. and 5% CO2. After incubating, beads with cells were transferred to a 25-cm^2 tissue culture flask (BD Biosciences, Bedford, Mass.) and left for 12-16 h in 5 ml of EGM-2 at 37° C. and 5% CO2. The following day, beads with cells were washed three times with 1 ml of EGM-2 and resuspended at a concentration of 200 cell-coated beads/ml in 2.5 mg/ml of fibrinogen (Sigma, St. Louis, Mo.) with or without 0.15 units/ml of aprotinin (Sigma) at a pH of 7.4. Five hundred microliters of fibrinogen/bead solution was added to 0.625 units of thrombin (Sigma) in one well of a 24-well tissue culture plate. […] Bead assays were monitored for 7 days. […]

NCI-H460 = assay: NCI-60 DTP Human Tumor Cell Line Screen; format: cell-based; settings: NCI-H460, Non-Small Cell Lung Cancer, 48 h
SW-620 = assay: NCI-60 DTP Human Tumor Cell Line Screen; format: cell-based; settings: SW-620, Colon Cancer, 48 h
SNB-75 = assay: NCI-60 DTP Human Tumor Cell Line Screen; format: cell-based; settings: SNB-75, CNS Cancer, 48 h
CAKI-1 = assay: NCI-60 DTP Human Tumor Cell Line Screen; format: cell-based; settings: CAKI-1, Renal Cancer, 48 h
RXF 393 = assay: NCI-60 DTP Human Tumor Cell Line Screen; format: cell-based; settings: RXF 393, Renal Cancer, 48 h

CN(CCCCCl)P(=O)(OCc1ccc([N+](=O)[O-])cc1)C(Cl)(Cl)P(=O)(OCc1ccc([N+](=O)[O-])cc1)N(C)CCCCCl (centres unmarked) [compound 14]
growth inhibitory effect on A549 cells (A549 NSCLC cells; 48 and 72 h): complete growth inhibition
growth inhibitory effect on A549 cells (A549 NSCLC cells; 24 h): partial growth inhibitory effect
EC50 (A549 NSCLC cells; A549 (NSCLC), MTS, table of Example 3): 8 µM
IC50 (A549 NSCLC cells; 24 h): 7.6 ± 3 µM
IC50 (A549 NSCLC cells; 48 h): 5.2 ± 1 µM
IC50 (A549 NSCLC cells; 72 h): 4.4 ± 2 µM
Mouse weight ([1]; Mar. 21, 2011, i.v. 100 μL of 3 mM (about 14 mg/kg), individual mice, listed as cloprodrug): 15.9 g and 14.5 g and 15.6 g
Δ in weight ([1]; Mar. 21 to Mar. 28, 2011, i.v. about 14 mg/kg, individual mice, listed as cloprodrug): 2.2 g and 2.7 g and 0.6 g
Mouse weight ([1]; Mar. 23, 2011, i.v. about 14 mg/kg, individual mice, listed as cloprodrug): 17.6 g and 16.4 g and 16.2 g
Mouse weight ([1]; Mar. 25, 2011, i.v. about 14 mg/kg, individual mice, listed as cloprodrug): 18.2 g and 16.8 g and 16.4 g
Mouse weight ([1]; Mar. 28, 2011, i.v. about 14 mg/kg, individual mice, listed as cloprodrug): 18.1 g and 17.2 g and 16.2 g
behavior ([1]; i.v. about 14 mg/kg): no unusual behavior observed
difference in weight between the three treatment groups ([1]; i.v. about 14 mg/kg vs vehicle and untreated): no significant difference in weight
Wt ([2]; Dose 1 (about 110 mg/kg i.p.), week 1, Apr. 11, 2011, individual mice): 19.2 g and 18.3 g and 19.4 g
Wt ([2]; Dose 1, 2nd week of treatment, Apr. 18, 2011): 19.3 g and 18.8 g and 18.4 g
Wt ([2]; Dose 1, 2nd week, Apr. 19, 2011): 19.3 g and 18.9 g and 18.3 g
Wt ([2]; Dose 1, 2nd week, Apr. 20, 2011): 19.4 g and 18.9 g and 18.4 g
Wt ([2]; Dose 1, 2nd week, Apr. 21, 2011): 19.1 g and 18.9 g and 18.6 g
Wt ([2]; Dose 1, 2nd week, Apr. 22, 2011): 19.3 g and 19.2 g and 18.3 g
Wt ([2]; Dose 1, week 1, Apr. 12, 2011): 19.3 g and 18.1 g and 18.4 g
Wt ([2]; Dose 1, week 1, Apr. 13, 2011): 19.8 g and 18.8 g and 18.7 g
Wt ([2]; Dose 1, week 1, Apr. 14, 2011): 19.8 g and 18.7 g and 19.1 g
Wt ([2]; Dose 1, week 1, Apr. 15, 2011): 19.5 g and 19.01 g and 18.8 g
Wt ([2]; Dose 2 (about 200 mg/kg i.p.), week 1, Apr. 11, 2011, individual mice): 18.7 g and 18.2 g and 19.1 g
Wt ([2]; Dose 2, 2nd week of treatment, Apr. 18, 2011): 19.3 g and 19.1 g and 19.5 g
Wt ([2]; Dose 2, 2nd week, Apr. 19, 2011): 19.1 g and 19.3 g and 19.5 g
Wt ([2]; Dose 2, 2nd week, Apr. 20, 2011): 18.8 g and 19 g
Wt ([2]; Dose 2, 2nd week, Apr. 21, 2011): 19 g and 19.4 g
Wt ([2]; Dose 2, 2nd week, Apr. 22, 2011): 18.9 g and 19.5 g and 20 g
Wt ([2]; Dose 2, week 1, Apr. 12, 2011): 17.8 g and 17.7 g and 18.2 g
Wt ([2]; Dose 2, week 1, Apr. 13, 2011): 19.07 g and 18.8 g
Wt ([2]; Dose 2, week 1, Apr. 14, 2011): 19.03 g and 18.8 g and 19.1 g
Wt ([2]; Dose 2, week 1, Apr. 15, 2011): 18.7 g and 18.2 g and 19.6 g
sprouting (HUVEC; 6 μM): sprouting was delayed for the first few days
sprouting (HUVEC; 10 μM): sprouting is inhibited
Log10GI50 (NCI-H460): −5.42
Log10LC50 (NCI-H460): >−4.00
Log10TGI (NCI-H460): >−4.00
Log10GI50 (SW-620): −5.27
Log10LC50 (SW-620): >−4.00
Log10TGI (SW-620): >−4.00
Log10GI50 (SNB-75): −5.65
Log10LC50 (SNB-75): >−4.00
Log10TGI (SNB-75): −5.17
Log10GI50 (CAKI-1): −5.54
Log10LC50 (CAKI-1): >−4.00
Log10TGI (CAKI-1): >−4.00
Log10GI50 (RXF 393): −5.50
Log10LC50 (RXF 393): >−4.00
Log10TGI (RXF 393): −4.38
